Values quoted from earlier work as cited in patent publication US20050192272A1, “Substituted benzodiazepines as inhibitors of the chemokine receptor CXCR4” (priority 2003, published 2005).

Assays:
[1] = Phase I/II clinical trials
[2] = rats
CXCR4 = CXCR4 (Homo sapiens, UniProt P61073); conditions: read-out: IC50 in inhibiting the binding of CXCL12 to CXCR4
CXCR4, sequence (P61073 whole entry): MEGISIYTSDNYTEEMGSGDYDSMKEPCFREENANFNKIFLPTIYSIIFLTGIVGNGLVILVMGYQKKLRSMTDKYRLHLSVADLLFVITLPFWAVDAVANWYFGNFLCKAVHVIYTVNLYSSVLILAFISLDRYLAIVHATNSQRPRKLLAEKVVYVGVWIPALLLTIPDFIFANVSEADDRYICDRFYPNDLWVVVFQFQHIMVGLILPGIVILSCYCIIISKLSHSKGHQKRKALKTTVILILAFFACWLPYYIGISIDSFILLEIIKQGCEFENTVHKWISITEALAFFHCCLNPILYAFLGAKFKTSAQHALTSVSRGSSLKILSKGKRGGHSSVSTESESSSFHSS

## c1cc(CN2CCCNCCNCCCNCC2)ccc1CN1CCCNCCNCCCNCC1 [ALX40-4C]
month-long clinical study, 1995
  acute cardiac toxicity: did not exhibit any acute cardiac toxicity
one-month Phase I/II clinical study
  adverse side effects: no adverse side effects

## c1cc(CN2CCCNCCNCCCNCC2)ccc1CN1CCCNCCNCCCNCC1 [AMD3100]
[1]
  cardiac toxicity: exhibited certain cardiac toxicity properties
  effectiveness: limited effectiveness

## C[C@H](NC(=O)[C@H](CCCNC(=N)N)NC(=O)c1ccc(CNCc2ccccn2)cc1)c1cccc2ccccc12 [KRH-1636]
[2]
  absorption from the duodenum: absorbed from the duodenum in rats

## [Tyr^5,12, Lys^7]-polyphemusin II [T-22]
X4-strains of HIV; through specific binding to the CXCR4 receptor
  inhibition of multiplication of X4-strains of HIV: strongly inhibit

## c(Nal-Gly-tyr-Arg-Arg) [FC131]
X4-strains of HIV
  level of anti-HIV activity and antagonism among CXCR4 antagonists reported to date: matched
CXCR4
  IC50: 4 nM
